# Measurements taken from patent publication US12239627B2, “Method of treating conditions related to the PGI2 receptor” (Arena Pharmaceuticals, Inc., priority 2014, dated 2025).
# Assay: Phase 1 single ascending dose study with healthy subjects (adverse events)
# Type: in vivo, human
# Details: for No. of subjects reporting AEs / No. of subjects with AE Abdominal pain / No. of subjects with AE Cough / No. of subjects with AE Diarrhoea / No. of subjects with AE Dizziness / No. of subjects with AE Flushing / No. of subjects with AE Headache / No. of subjects with AE Jaw pain / No. of subjects with AE Muscle spasm / No. of subjects with AE Nausea / No. of subjects with AE Neck pain / No. of subjects with AE Oropharyngeal pain / No. of subjects with AE Pain in extremity / No. of subjects with AE Photophobia / No. of subjects with AE Vomiting / Number of Subjects Reporting AEs By Most Direct Relationship to Study Treatment: Definitely not related / Number of Subjects Reporting AEs By Most Direct Relationship to Study Treatment: Possibly related / Number of Subjects Reporting AEs By Most Direct Relationship to Study Treatment: Probably not related / Number of Subjects Reporting AEs By Most Direct Relationship to Study Treatment: Probably related: 6 subjects
# Description: This study was a phase 1, randomized, double-blind, placebo-controlled study of four cohorts of 8 subjects each (2 subjects were assigned to receive placebo, and 6 to receive Compound 1). Each cohort was assigned to receive a single dose level of blinded study medication in an ascending dose fashion; dosing began at 0.1 mg.
# All enrolled subjects received a single oral dose of study medication (Compound 1 or placebo). Dose escalation was slowed or discontinued when predefined safety criteria based on peak plasma exposure levels, blood pressure changes, or adverse events (AEs) were met. […] Two lower dose cohorts were added, in which the doses of Compound 1were 0.05 mg and 0.03 respectively.
# After each cohort was dosed, the following safety parameters were monitored: vital signs, clinical laboratory tests to include serum chemistry, hematology, and urinalysis, 12-lead ECG, plasma Compound 1 concentration, and AEs. Pharmacokinetic parameters were monitored and calculated for Compound 1.
compound,measurement,setting,value
"O=C(O)COC[C@H]1CC[C@H](COC(=O)N(c2ccccc2)c2ccc(Cl)cc2)CC1 [Compound 1, 2-(((1r,4r)-4-(((4-chlorophenyl)(phenyl)carbamoyloxy)methyl)cyclohexyl)methoxy)acetic acid]",AEs on which dose escalation was discontinued,"2nd cohort, single oral dose 0.2 mg",prolonged nausea and vomiting that was severe in intensity
same,Tolerability of the dose,"single dose 0.1 mg, some subjects experienced nausea, vomiting, headache, and jaw pain",tolerated
same,Tolerability of the dose,single dose 0.2 mg,Intolerable AEs
same,No. of subjects reporting AEs,single oral dose 0.03 mg,2 subjects
same,No. of subjects with AE Abdominal pain,single oral dose 0.03 mg,0 subjects
same,No. of subjects with AE Cough,single oral dose 0.03 mg,0 subjects
same,No. of subjects with AE Diarrhoea,single oral dose 0.03 mg,0 subjects
same,No. of subjects with AE Dizziness,single oral dose 0.03 mg,0 subjects
same,No. of subjects with AE Flushing,single oral dose 0.03 mg,0 subjects
same,No. of subjects with AE Headache,single oral dose 0.03 mg,2 subjects
same,No. of subjects with AE Jaw pain,single oral dose 0.03 mg,0 subjects
same,No. of subjects with AE Muscle spasm,single oral dose 0.03 mg,0 subjects
same,No. of subjects with AE Nausea,single oral dose 0.03 mg,0 subjects
same,No. of subjects with AE Neck pain,single oral dose 0.03 mg,0 subjects
same,No. of subjects with AE Oropharyngeal pain,single oral dose 0.03 mg,0 subjects
same,No. of subjects with AE Pain in extremity,single oral dose 0.03 mg,0 subjects
same,No. of subjects with AE Photophobia,single oral dose 0.03 mg,0 subjects
same,No. of subjects with AE Vomiting,single oral dose 0.03 mg,0 subjects
same,Number of Subjects Reporting AEs By Most Direct Relationship to Study Treatment: Definitely not related,single oral dose 0.03 mg,0 subjects
same,Number of Subjects Reporting AEs By Most Direct Relationship to Study Treatment: Possibly related,single oral dose 0.03 mg,2 subjects
same,Number of Subjects Reporting AEs By Most Direct Relationship to Study Treatment: Probably not related,single oral dose 0.03 mg,0 subjects
same,Number of Subjects Reporting AEs By Most Direct Relationship to Study Treatment: Probably related,single oral dose 0.03 mg,0 subjects
same,No. of subjects reporting AEs,single oral dose 0.05 mg,5 subjects
same,No. of subjects with AE Abdominal pain,single oral dose 0.05 mg,1 subjects
same,No. of subjects with AE Cough,single oral dose 0.05 mg,0 subjects
same,No. of subjects with AE Diarrhoea,single oral dose 0.05 mg,0 subjects
same,No. of subjects with AE Dizziness,single oral dose 0.05 mg,0 subjects
same,No. of subjects with AE Flushing,single oral dose 0.05 mg,1 subjects
same,No. of subjects with AE Headache,single oral dose 0.05 mg,5 subjects
same,No. of subjects with AE Jaw pain,single oral dose 0.05 mg,2 subjects
same,No. of subjects with AE Muscle spasm,single oral dose 0.05 mg,0 subjects
same,No. of subjects with AE Nausea,single oral dose 0.05 mg,1 subjects
same,No. of subjects with AE Neck pain,single oral dose 0.05 mg,0 subjects
same,No. of subjects with AE Oropharyngeal pain,single oral dose 0.05 mg,0 subjects
same,No. of subjects with AE Pain in extremity,single oral dose 0.05 mg,0 subjects
same,No. of subjects with AE Photophobia,single oral dose 0.05 mg,1 subjects
same,No. of subjects with AE Vomiting,single oral dose 0.05 mg,0 subjects
same,Number of Subjects Reporting AEs By Most Direct Relationship to Study Treatment: Definitely not related,single oral dose 0.05 mg,0 subjects
same,Number of Subjects Reporting AEs By Most Direct Relationship to Study Treatment: Possibly related,single oral dose 0.05 mg,5 subjects
same,Number of Subjects Reporting AEs By Most Direct Relationship to Study Treatment: Probably not related,single oral dose 0.05 mg,0 subjects
same,Number of Subjects Reporting AEs By Most Direct Relationship to Study Treatment: Probably related,single oral dose 0.05 mg,0 subjects
same,No. of subjects reporting AEs,single oral dose 0.1 mg,6 subjects
same,No. of subjects with AE Abdominal pain,single oral dose 0.1 mg,1 subjects
same,No. of subjects with AE Cough,single oral dose 0.1 mg,0 subjects
same,No. of subjects with AE Diarrhoea,single oral dose 0.1 mg,0 subjects
same,No. of subjects with AE Dizziness,single oral dose 0.1 mg,1 subjects
same,No. of subjects with AE Flushing,single oral dose 0.1 mg,1 subjects
same,No. of subjects with AE Headache,single oral dose 0.1 mg,5 subjects
same,No. of subjects with AE Jaw pain,single oral dose 0.1 mg,3 subjects
same,No. of subjects with AE Muscle spasm,single oral dose 0.1 mg,0 subjects
same,No. of subjects with AE Nausea,single oral dose 0.1 mg,2 subjects
same,No. of subjects with AE Neck pain,single oral dose 0.1 mg,1 subjects
same,No. of subjects with AE Oropharyngeal pain,single oral dose 0.1 mg,0 subjects
same,No. of subjects with AE Pain in extremity,single oral dose 0.1 mg,0 subjects
same,No. of subjects with AE Photophobia,single oral dose 0.1 mg,0 subjects
same,No. of subjects with AE Vomiting,single oral dose 0.1 mg,2 subjects
same,Number of Subjects Reporting AEs By Most Direct Relationship to Study Treatment: Definitely not related,single oral dose 0.1 mg,1 subjects
same,Number of Subjects Reporting AEs By Most Direct Relationship to Study Treatment: Possibly related,single oral dose 0.1 mg,4 subjects
same,Number of Subjects Reporting AEs By Most Direct Relationship to Study Treatment: Probably not related,single oral dose 0.1 mg,0 subjects
same,Number of Subjects Reporting AEs By Most Direct Relationship to Study Treatment: Probably related,single oral dose 0.1 mg,1 subjects
same,No. of subjects reporting AEs,single oral dose 0.2 mg,6 subjects
same,No. of subjects with AE Abdominal pain,single oral dose 0.2 mg,0 subjects
same,No. of subjects with AE Cough,single oral dose 0.2 mg,0 subjects
same,No. of subjects with AE Diarrhoea,single oral dose 0.2 mg,1 subjects
same,No. of subjects with AE Dizziness,single oral dose 0.2 mg,0 subjects
same,No. of subjects with AE Flushing,single oral dose 0.2 mg,2 subjects
same,No. of subjects with AE Headache,single oral dose 0.2 mg,5 subjects
same,No. of subjects with AE Jaw pain,single oral dose 0.2 mg,1 subjects
same,No. of subjects with AE Muscle spasm,single oral dose 0.2 mg,1 subjects
same,No. of subjects with AE Nausea,single oral dose 0.2 mg,3 subjects
same,No. of subjects with AE Neck pain,single oral dose 0.2 mg,0 subjects
same,No. of subjects with AE Oropharyngeal pain,single oral dose 0.2 mg,1 subjects
same,No. of subjects with AE Pain in extremity,single oral dose 0.2 mg,1 subjects
same,No. of subjects with AE Photophobia,single oral dose 0.2 mg,0 subjects
same,No. of subjects with AE Vomiting,single oral dose 0.2 mg,6 subjects
same,Number of Subjects Reporting AEs By Most Direct Relationship to Study Treatment: Definitely not related,single oral dose 0.2 mg,0 subjects
same,Number of Subjects Reporting AEs By Most Direct Relationship to Study Treatment: Possibly related,single oral dose 0.2 mg,0 subjects
same,Number of Subjects Reporting AEs By Most Direct Relationship to Study Treatment: Probably not related,single oral dose 0.2 mg,0 subjects
same,Number of Subjects Reporting AEs By Most Direct Relationship to Study Treatment: Probably related,single oral dose 0.2 mg,6 subjects
